Assays:
[1] = molecular target: T1, BceN (GDP-D-mannose 4,6-dehydratase) (Burkholderia cenocepacia, UniProt B4EFL2); test: 1H NMR enzyme kinetics with purified protein (substrate turnover and substrate inhibition), […]°C, pH […]; type: biochemical
T1 construct: gene gca; full-length, C-terminally 6×His-tagged BceN, tetramer

[2] = molecular target: 6×His-tagged BceN protein of Burkholderia cenocepacia J2315 (GDP-D-mannose 4,6-dehydratase) (Burkholderia cenocepacia J2315); test: native gel or EMSA; discontinuous native PAGE, 8% polyacrylamide, 200 mM Tris-Cl pH 8.8, 4°C, 100 V, 2 h; 6 µg purified 6×His-tagged BceN; aliquot with GMD activity; mass standards catalase, aldolase, BSA, ovalbumin

Compound | Ki [1] | stoichiometry N [2]
Nc1nc2c(ncn2[C@@H]2O[C@H](COP(=O)(O)OP(=O)(O)O[C@H]3O[C@H](CO)[C@@H](O)[C@H](O)[C@@H]3O)[C@@H](O)[C@H]2O)c(=O)[nH]1 [A, GDP-D-mannose] | 2910 ± 350 µM | –
6×His-tagged BceN protein of Burkholderia cenocepacia J2315 (GDP-D-mannose 4,6-dehydratase) (enzyme) | – | 4

— paper PMC3584063, “Biochemical and Functional Studies on the Burkholderia cepacia Complex bceN Gene, Encoding a GDP-D-Mannose 4,6-Dehydratase” (PLoS ONE, 2013)
